Source: patent publication US20090291942A1, “IMIDAZO PYRIDINE DERIVATIVES” (priority 2008, published 2009)
Counter-ions that a name gives are not always drawn.

The compounds below were run against T1, human GPR4 (Homo sapiens, UniProt P46093) (assay: Cell-based assay for human GPR4 activity (pH-induced cAMP formation, HTRF)). Conditions: HeLa cells stably expressing human GPR4, pH-induced cAMP formation.
T1 construct: expressed in transfected cells
Method: a) Cell-Based Assay for Human GPR4 Activity
HeLa cells stably expressing human GPR4 were established by transfecting the cells with a construct containing the human GPR4 coding sequence. The cells were grown in DMEM/HAM's F12 medium supplemented with 10% fetal calf serum (FCS), 100 u/ml penicillin, 100 μg/ml streptomycin and 400 μg/ml G418 and 10 mM Hepes pH 8.0. pH-induced formation of cAMP was determined using the HTRF technology as provided by CisBio Inc. The cells were seeded in 384-well plates and cultured for 24 hours at 37° C., 5% CO2 before performing the assay. Medium was removed and 10 μl buffer A (HBS, 10 mM Hepes, pH 8, 2 mM IBMX) was added. For compound testing, buffer A with 2× concentrated compounds was used. Cells were incubated for 15 min at room temperature. 10 μl buffer B (HBS, 30 mM Hepes, specific pH) was added to reach the appropriate final pH for stimulation (see below) and incubation was continued for 15 min at room temperature. […] HBS: 130 mM NaCl, 0.9 mM NaH2PO4, 5.4 mM KCl, 0.8 mM MgSO4, CaCl2 1.8 mM, 25 mM glucose, 10-30 mM Hepes. Adjustment of HBS buffers: Bf A Bf B Final stimulation pH (1 volume buffer A+1 volume buffer B)
Compounds were diluted from fresh stock solutions at 10 mM in DMSO to 2 mM and then used for serial dilutions in DMSO.

T1 sequence (P46093 whole entry): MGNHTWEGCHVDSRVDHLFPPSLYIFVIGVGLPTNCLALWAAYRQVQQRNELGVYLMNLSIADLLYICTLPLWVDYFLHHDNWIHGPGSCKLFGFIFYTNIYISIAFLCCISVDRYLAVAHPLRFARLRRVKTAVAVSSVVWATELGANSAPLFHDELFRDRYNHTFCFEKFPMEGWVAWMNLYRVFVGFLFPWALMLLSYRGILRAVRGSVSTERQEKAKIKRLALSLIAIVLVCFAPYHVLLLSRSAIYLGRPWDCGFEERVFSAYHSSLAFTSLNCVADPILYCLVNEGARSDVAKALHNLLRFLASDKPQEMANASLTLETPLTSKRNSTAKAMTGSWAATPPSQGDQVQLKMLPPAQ

Which IC50 does the source give for CCc1nc2c(C)cc(C)nc2n1Cc1ccc(CCCN2CCN(C(C)C)C(CC)C2)cc1 (stereo not shown) [Example 25, 2-Ethyl-3-{4-[3-(3-ethyl-4-isopropyl-piperazin-1-yl)-propyl]-benzyl}-5,7-dimethyl-3H-imidazo[4,5-b]pyridine] here?
Its IC50 is 364 nM.

With CCc1nc2c(C)cc(C)nc2n1Cc1ccc(/C=C/CN2CCN(CCOC)CC2)cc1 [Example 62, 2-Ethyl-3-(4-{(E)-3-[4-(2-methoxy-ethyl)-piperazin-1-yl]-propenyl}-benzyl)-5,7-dimethyl-3H-imidazo[4,5-b]pyridine dihydrochloride] as the compound, how does the IC50 read?
Its IC50 is 552 nM.

With CCc1nc2c(C)cc(C)nc2n1Cc1ccc(/C=C/CN2CCC(O)(CN3CCOCC3)CC2)cc1 [Example 39, 1-{(E)-3-[4-(2-Ethyl-5,7-dimethyl-imidazo[4,5-b]pyridin-3-ylmethyl)-phenyl]-allyl}-4-morpholin-4-ylmethyl-piperidin-4-ol] as the compound, how does the IC50 read?
The IC50 was 280 nM.

For CCc1nc2c(C)cc(C)nc2n1Cc1ccc(/C=C/CN2CCN(CC(=O)N(C)C)CC2)cc1 [Example 65, 2-(4-{(E)-3-[4-(2-Ethyl-5,7-dimethyl-imidazo[4,5-b]pyridin-3-ylmethyl)-phenyl]-allyl}-piperazin-1-yl)-N,N-dimethyl-acetamide], which IC50 is on record?
Its IC50 is 647 nM.

With CCc1nc2c(C)cc(C)nc2n1Cc1ccc(/C=C/CN2CCN(CC)CC2)cc1 [Example 44, 2-Ethyl-3-{4-[(E)-3-(4-ethyl-piperazin-1-yl)-propenyl]-benzyl}-5,7-dimethyl-3H-imidazo[4,5-b]pyridine dihydrochloride] as the compound, how does the IC50 read?
Its IC50 is 261 nM.

With CCc1nc2c(C)cc(C)nc2n1Cc1ccc(CCCN2CCN(CC3CCC3)CC2)cc1 [Example 17, 3-{4-[3-(4-Cyclobutylmethyl-piperazin-1-yl)-propyl]-benzyl}-2-ethyl-5,7-dimethyl-3H-imidazo[4,5-b]pyridine dihydrochloride] as the compound, how does the IC50 read?
The IC50 was 178 nM.

How did the IC50 turn out when Cc1cc(C)c2nc(C)n(Cc3ccc(/C=C/CN4CCC(N5CCCCC5)CC4)cc3)c2n1 [Example 30, 1′-{(E)-3-[4-(2,5,7-Trimethyl-imidazo[4,5-b]pyridin-3-ylmethyl)-phenyl]-allyl}-[1,4′]bipiperidinyl] was run?
Its IC50 is 94 nM.

For CCc1nc2c(C)cc(C)nc2n1Cc1ccc(/C=C/CN2CCN(C3CCCC3)CC2)cc1 [Example 56, 3-{4-[(E)-3-(4-Cyclopentyl-piperazin-1-yl)-propenyl]-benzyl}-2-ethyl-5,7-dimethyl-3H-imidazo[4,5-b]pyridine], which IC50 is on record?
Its IC50 is 165 nM.

Which IC50 does the source give for CCc1nc2c(C)cc(C)nc2n1Cc1ccc(/C=C/CN2CCC(OC)CC2)cc1 [Example 37, 2-Ethyl-3-{4-[(E)-3-(4-methoxy-piperidin-1-yl)-propenyl]-benzyl}-5,7-dimethyl-3H-imidazo[4,5-b]pyridine] here?
Its IC50 is 419 nM.

For CCc1nc2c(C)cc(C)nc2n1Cc1ccc(/C=C/CCN2CCN(C(C)(C)C)CC2)cc1 [Example 104, 3-{4-[(E)-4-(4-tert-Butyl-piperazin-1-yl)-but-1-enyl]-benzyl}-2-ethyl-5,7-dimethyl-3H-imidazo[4,5-b]pyridine dihydrochloride], which IC50 is on record?
The IC50 was 60 nM.

For CCc1nc2c(C)cc(C)nc2n1Cc1ccc(CCCN2CCN(CCN(C)C)CC2)cc1 [Example 21, [2-(4-{3-[4-(2-Ethyl-5,7-dimethyl-imidazo[4,5-b]pyridin-3-ylmethyl)-phenyl]-propyl}-piperazin-1-yl)-ethyl]-dimethyl-amine dihydrochloride], which IC50 is on record?
The IC50 was 345 nM.

Which IC50 does the source give for CCc1nc2c(C)cc(C)nc2n1Cc1ccc(/C=C/CN2C[C@H]3C[C@@H]2CN3CC)cc1 [Example 74, 2-Ethyl-3-{4-[(E)-3-((1R,4R)-5-ethyl-2,5-diaza-bicyclo[2.2.1]hept-2-yl)-propenyl]-benzyl}-5,7-dimethyl-3H-imidazo[4,5-b]pyridine] here?
Its IC50 is 323 nM.

How did the IC50 turn out when CCc1nc2c(C)cc(C)nc2n1Cc1ccc(/C=C/CN2CCN(CC3CCC3)CC2)cc1 [Example 55, 3-{4-[(E)-3-(4-Cyclobutylmethyl-piperazin-1-yl)-propenyl]-benzyl}-2-ethyl-5,7-dimethyl-3H-imidazo[4,5-b]pyridine dihydrochloride] was run?
The IC50 was 86 nM.
